# According to ChEMBL document CHEMBL3994622, “Design and synthesis of new RAF kinase-inhibiting antiproliferative quinoline derivatives. Part 2: Diarylurea derivatives” (Eur J Med Chem, 2017):
# Legend:
# Type in all cases: functional
# BT-549 = test: Growth inhibition of human BT549 cells assessed as cell growth at 0.3 uM incubated for 48 hrs by sulforhodamine B assay relative to control; conditions: BT-549, 48 h, read-out: Activity
# MDA-MB-231 [1] = test: Growth inhibition of human MDA-MB-231 cells assessed as cell growth at 0.003 uM incubated for 48 hrs by sulforhodamine B assay relative to control; conditions: MDA-MB-231, 48 h, read-out: Activity
# UACC-257 = test: Growth inhibition of human UACC257 cells assessed as cell growth at 0.3 uM incubated for 48 hrs by sulforhodamine B assay relative to control; conditions: UACC-257, 48 h, read-out: Activity
# SF-295 = test: Growth inhibition of human SF295 cells assessed as cell growth at 0.03 uM incubated for 48 hrs by sulforhodamine B assay relative to control; conditions: SF-295, 48 h, read-out: Activity
# SF-268 [2] = test: Growth inhibition of human SF268 cells assessed as cell growth at 0.3 uM incubated for 48 hrs by sulforhodamine B assay relative to control; conditions: SF-268, 48 h, read-out: Activity
# SW-620 = test: Growth inhibition of human SW620 cells assessed as cell growth at 0.003 uM incubated for 48 hrs by sulforhodamine B assay relative to control; conditions: SW-620, 48 h, read-out: Activity
# SF-539 [3] = test: Growth inhibition of human SF539 cells assessed as cell growth at 30 uM incubated for 48 hrs by sulforhodamine B assay relative to control; conditions: SF-539, 48 h, read-out: Activity
# RXF 393 [4] = test: Growth inhibition of human RXF393 cells assessed as cell growth at 0.3 uM incubated for 48 hrs by sulforhodamine B assay relative to control; conditions: RXF 393, 48 h, read-out: Activity
# NCI-H23 = test: Growth inhibition of human NCI-H23 cells assessed as cell growth at 3 uM incubated for 48 hrs by sulforhodamine B assay relative to control; conditions: NCI-H23, 48 h, read-out: Activity
# CCRF-CEM [5] = test: Growth inhibition of human CCRF-CEM cells assessed as cell growth at 0.003 uM incubated for 48 hrs by sulforhodamine B assay relative to control; conditions: read-out: Activity
# OVCAR-4 = test: Growth inhibition of human OVCAR4 cells assessed as cell growth at 3 uM incubated for 48 hrs by sulforhodamine B assay relative to control; conditions: OVCAR-4, 48 h, read-out: Activity
# RXF 393 [6] = test: Growth inhibition of human RXF393 cells assessed as cell growth at 0.03 uM incubated for 48 hrs by sulforhodamine B assay relative to control; conditions: RXF 393, 48 h, read-out: Activity
# Hs-578T = test: Growth inhibition of human Hs 578T cells assessed as cell growth at 30 uM incubated for 48 hrs by sulforhodamine B assay relative to control; conditions: read-out: Activity
# NCI-H522 = test: Growth inhibition of human NCI-H522 cells assessed as cell growth at 3 uM incubated for 48 hrs by sulforhodamine B assay relative to control; conditions: NCI-H522, 48 h, read-out: Activity
# SK-MEL-5 [7] = test: Growth inhibition of human SK-MEL-5 cells assessed as cell growth at 0.03 uM incubated for 48 hrs by sulforhodamine B assay relative to control; conditions: SK-MEL-5, 48 h, read-out: Activity
# Malme-3M [8] = test: Growth inhibition of human MALME-3M cells assessed as cell growth at 3 uM incubated for 48 hrs by sulforhodamine B assay relative to control; conditions: read-out: Activity
# HCT-116 [9] = test: Growth inhibition of human HCT116 cells assessed as cell growth at 0.003 uM incubated for 48 hrs by sulforhodamine B assay relative to control; conditions: HCT-116, 48 h, read-out: Activity
# SNB-75 = test: Growth inhibition of human SNB75 cells assessed as cell growth at 3 uM incubated for 48 hrs by sulforhodamine B assay relative to control; conditions: SNB-75, 48 h, read-out: Activity
# UACC-62 = test: Growth inhibition of human UACC62 cells assessed as cell growth at 1 uM incubated for 48 hrs by sulforhodamine B assay relative to control; conditions: UACC-62, 48 h, read-out: Activity
# SK-MEL-5 [10] = test: Growth inhibition of human SK-MEL-5 cells assessed as cell growth at 0.01 uM incubated for 48 hrs by sulforhodamine B assay relative to control; conditions: SK-MEL-5, 48 h, read-out: Activity
# HCT-116 [11] = test: Growth inhibition of human HCT116 cells assessed as cell growth at 100 uM incubated for 48 hrs by sulforhodamine B assay relative to control; conditions: HCT-116, 48 h, read-out: Activity
# SF-268 [12] = test: Growth inhibition of human SF268 cells assessed as cell growth at 0.1 uM incubated for 48 hrs by sulforhodamine B assay relative to control; conditions: SF-268, 48 h, read-out: Activity
# A549 = test: Growth inhibition of human A549/ATCC cells assessed as cell growth at 100 uM incubated for 48 hrs by sulforhodamine B assay relative to control; conditions: A549, 48 h, read-out: Activity
# Malme-3M [13] = test: Growth inhibition of human MALME-3M cells assessed as cell growth at 0.01 uM incubated for 48 hrs by sulforhodamine B assay relative to control; conditions: read-out: Activity
# TK-10 = test: Growth inhibition of human TK10 cells assessed as cell growth at 0.1 uM incubated for 48 hrs by sulforhodamine B assay relative to control; conditions: TK-10, 48 h, read-out: Activity
# MDA-MB-231 [14] = test: Growth inhibition of human MDA-MB-231 cells assessed as cell growth at 1 uM incubated for 48 hrs by sulforhodamine B assay relative to control; conditions: MDA-MB-231, 48 h, read-out: Activity
# OVCAR-3 = test: Growth inhibition of human OVCAR3 cells assessed as cell growth at 0.1 uM incubated for 48 hrs by sulforhodamine B assay relative to control; conditions: OVCAR-3, 48 h, read-out: Activity
# SK-MEL-28 = test: Growth inhibition of human SK-MEL-28 cells assessed as cell growth at 0.01 uM incubated for 48 hrs by sulforhodamine B assay relative to control; conditions: SK-MEL-28, 48 h, read-out: Activity
# HOP-92 = test: Growth inhibition of human HOP92 cells assessed as cell growth at 0.01 uM incubated for 48 hrs by sulforhodamine B assay relative to control; conditions: HOP-92, 48 h, read-out: Activity
# IGROV-1 = test: Growth inhibition of human IGROV1 cells assessed as cell growth at 0.1 uM incubated for 48 hrs by sulforhodamine B assay relative to control; conditions: IGROV-1, 48 h, read-out: Activity
# SK-MEL-5 [15] = test: Growth inhibition of human SK-MEL-5 cells assessed as cell growth at 10 uM incubated for 48 hrs by sulforhodamine B assay relative to control; conditions: SK-MEL-5, 48 h, read-out: Activity
# CCRF-CEM [16] = test: Growth inhibition of human CCRF-CEM cells assessed as cell growth at 0.1 uM incubated for 48 hrs by sulforhodamine B assay relative to control; conditions: read-out: Activity
# SF-539 [17] = test: Growth inhibition of human SF539 cells assessed as cell growth at 1 uM incubated for 48 hrs by sulforhodamine B assay relative to control; conditions: SF-539, 48 h, read-out: Activity
# CCRF-CEM [18] = test: Growth inhibition of human CCRF-CEM cells assessed as cell growth at 100 uM incubated for 48 hrs by sulforhodamine B assay relative to control; conditions: read-out: Activity
# EKVX = test: Growth inhibition of human EKVX cells assessed as cell growth at 0.01 uM incubated for 48 hrs by sulforhodamine B assay relative to control; conditions: read-out: Activity
smiles,measurement,setting,value
COc1cc2cc(Oc3ccc(NC(=O)Nc4ccc(Cl)c(C(F)(F)F)c4)cc3)c(C)nc2cc1OC,growth at 0.3 µM,BT-549,85%
same,growth at 0.003 µM,MDA-MB-231 [1],101%
same,growth at 0.3 µM,UACC-257,83%
same,growth at 0.03 µM,SF-295,91%
same,growth at 0.3 µM,SF-268 [2],100%
same,growth at 0.003 µM,SW-620,95%
same,growth at 30 µM,SF-539 [3],-49%
same,growth at 0.3 µM,RXF 393 [4],113%
same,growth at 3 µM,NCI-H23,5%
same,growth at 0.003 µM,CCRF-CEM [5],111%
same,growth at 3 µM,OVCAR-4,23%
same,growth at 0.03 µM,RXF 393 [6],104%
same,growth at 30 µM,Hs-578T,-53%
same,growth at 3 µM,NCI-H522,-8%
same,growth at 0.03 µM,SK-MEL-5 [7],92%
same,growth at 3 µM,Malme-3M [8],12%
same,growth at 0.003 µM,HCT-116 [9],100%
same,growth at 3 µM,SNB-75,10%
COc1cc2cc(Oc3ccc(NC(=O)Nc4cc(C(F)(F)F)cc(C(F)(F)F)c4)cc3)c(C)nc2cc1OC,growth at 1 µM,UACC-62,35%
same,growth at 0.01 µM,SK-MEL-5 [10],100%
same,growth at 100 µM,HCT-116 [11],-87%
same,growth at 0.1 µM,SF-268 [12],92%
same,growth at 100 µM,A549,-85%
same,growth at 0.01 µM,Malme-3M [13],87%
same,growth at 0.1 µM,TK-10,89%
same,growth at 1 µM,MDA-MB-231 [14],55%
same,growth at 0.1 µM,OVCAR-3,101%
same,growth at 0.01 µM,SK-MEL-28,91%
same,growth at 0.01 µM,HOP-92,93%
same,growth at 0.1 µM,IGROV-1,95%
same,growth at 10 µM,SK-MEL-5 [15],-79%
same,growth at 0.1 µM,CCRF-CEM [16],97%
same,growth at 1 µM,SF-539 [17],73%
same,growth at 100 µM,CCRF-CEM [18],-40%
same,growth at 0.01 µM,EKVX,89%
COc1cc2cc(Oc3ccc(NC(=O)Nc4ccc(Cl)c(Cl)c4)cc3)c(C)nc2cc1OC,growth at 1 µM,UACC-62,77%
same,growth at 0.01 µM,SK-MEL-5 [10],103%
same,growth at 100 µM,HCT-116 [11],-100%
same,growth at 0.1 µM,SF-268 [12],109%
same,growth at 100 µM,A549,-100%
same,growth at 0.01 µM,Malme-3M [13],102%
same,growth at 0.1 µM,TK-10,121%
same,growth at 1 µM,MDA-MB-231 [14],77%
same,growth at 0.1 µM,OVCAR-3,116%
same,growth at 0.01 µM,SK-MEL-28,101%
same,growth at 0.01 µM,HOP-92,95%
same,growth at 0.1 µM,IGROV-1,112%
same,growth at 10 µM,SK-MEL-5 [15],-9%
same,growth at 0.1 µM,CCRF-CEM [16],104%
same,growth at 1 µM,SF-539 [17],103%
same,growth at 100 µM,CCRF-CEM [18],-26%
same,growth at 0.01 µM,EKVX,94%
Cc1nc2cc(O)c(O)cc2cc1Oc1ccc(NC(=O)Nc2ccc(Cl)c(Cl)c2)cc1,growth at 0.3 µM,BT-549,92%
same,growth at 0.003 µM,MDA-MB-231 [1],110%
same,growth at 0.3 µM,UACC-257,92%
same,growth at 0.03 µM,SF-295,90%
same,growth at 0.3 µM,SF-268 [2],107%
same,growth at 0.003 µM,SW-620,100%
same,growth at 30 µM,SF-539 [3],-19%
same,growth at 0.3 µM,RXF 393 [4],103%
same,growth at 3 µM,NCI-H23,87%
same,growth at 0.003 µM,CCRF-CEM [5],97%
same,growth at 3 µM,OVCAR-4,87%
same,growth at 0.03 µM,RXF 393 [6],96%
same,growth at 30 µM,Hs-578T,16%
same,growth at 3 µM,NCI-H522,65%
same,growth at 0.03 µM,SK-MEL-5 [7],101%
same,growth at 3 µM,Malme-3M [8],94%
same,growth at 0.003 µM,HCT-116 [9],93%
same,growth at 3 µM,SNB-75,83%
